Laboratory results from patent US20080076824A1, “Compounds That Inhibit Replication Of Human Immunodeficiency Virus” (priority 2004, published 2008).
Several values for one entry are separate records, joined by “and”; a condition that tells them apart may be missing. Equal entries are not always repeated. Structures can show the parent of a compound that is named as a salt.

Assay: Microdose study of 14C-AlphaHGA in healthy volunteers, plasma pharmacokinetics (AMS)
Type: in vivo, human
Description: In this example, the pharmacokinetics (PK) and oral bioavailability of AlphaHGA in adult healthy volunteers following a single ‘microdose’ in a sequence-randomized, cross-over study design (two periods 7 days apart) was determined. Clinical experiments were conducted with low-level radiolabelled (^14C) AlphaHGA administered intravenously (IV) orally (PO) with serial blood and urine samples were collected for concentration analysis utilizing accelerator mass spectrometry (AMS).
Accordingly, eight subjects were enrolled into a single dose cross-over study. The subjects were randomly assigned to one of two administration sequences. Subjects that were assigned to sequence 1 received AlphaHGA as an oral preparation first (Period 1) followed by the intravenous (IV) preparation 1 week later (Period 2). Subjects assigned to sequence 2 received AlphaHGA as an intravenous preparation first followed by the oral preparation 1 week later. Four subjects were assigned to sequence 1 and four subjects were assigned to sequence 2.
For both oral and IV doses subjects were administered 100 nCi (3.7 Kbq) of alphaHGA, which was determined to contain 1.602888×10ˆ6 fmol of ^14C. The specific activity of each dose was 46.619 MBq/mol (or 1.260 mCi/mol). A stock blend of ^14C-labelled alphaHGA was produced prior to the first study period. The actual formulations used for dosing were prepared on the morning prior to each study period. The infusion was a single bolus injection with both the infusion and flush were completed in less than 30 seconds.
Blood (5 ml) was collected following the administration of AlphaHGA orally or as an IV bolus at the following times: pre-dose (T=0) and 15, 30, 45, 60 minutes, and at 2, 3, 4, 6, 8, 10, 12, 16, 24 hours post-dose. All of the 224 scheduled blood samples were obtained. Blood specimens were drawn by intravenous in-dwelling catheter into 2×10 mL EDTA containing Vacutainer tubes and RBC's separated by centrifugation.
Plasma specimens (30 μL) were analyzed directly via the combustive procedure without further chemical manipulation. For the purposes of calculating ^14C concentration per volume of plasma, a general carbon content of 45% (dry mass) was applied. The urine was mixed with equal volumes (0.5 mL) of a sucrose carbon diluent solution (200 g/L) and mixed by inversion in a disposable polypropylene centrifuge tube. A 20-μL sample was graphitized for AMS analysis according to standard procedures. The mass fraction of the urine represented in the measured sample was inverted and multipled by the ^14C contents above background derived from the AMS measurement to calculate the ^14C content in the total urine void. A density value of 1 g/mL for urine was assumed to calculate its volume from the recorded masses.
Pharmacokinetic parameters were estimated by noncompartmental analysis employing the PK software WinNonlin version 4.1 (Pharsight Corporation, Palo Alto, Calif.). Statistical analyses were performed using either WinNonlin 4.1 or SPlus 2000 (Insightful Inc, Seattle, Wash.). All parameter calculations are reported from observed values and not from predicted values. However, observed and predicted values were very close and parameter estimates from both approaches were nearly equal.
. Values for the following PK parameters were estimated from plasma alphaHGA concentrations:
Maximum observed concentration (Cmax) and the time to reach Cmax (Tmax), the last quantified concentration (Clast), the time to Clast (Tlast), and time to the first quantified concentration (Tfirst) came from the experimentally observed values.
Terminal elimination rate constant (λz), was estimated from log-linear regression analysis of the apparent terminal phase of the plasma concentration-time profile. Weighting for the regression was 1/Y^2. The associated plasma half-life (T½) was calculated as T½=ln 2/λz. The point employed for estimating λz, were selected by the WinNonlin default curve stripping algorithm. […]

[1] = plasma, route iv, individual subjects 1-8, period 1 or 2
[2] = plasma, route iv, individual subjects 1-8, period 1 or 2, hydrochloride
[3] = plasma, route po, individual subjects 1-8, period 1 or 2, hydrochloride

NC(=O)C(N)O (stereo not drawn) [AlphaHGA, α-Hydroxy-glycinamide hydrochloride]
AUC % Extrap (all subjects): less than 20%
terminal elimination half-life in the plasma (following both routes of administration): approximately 10 hours
absorption (oral administration): rapidly and completely absorbed after oral administration
AUC % Extrap (plasma, Period 1, Max): 17.43%
AUCTmax (plasma, Period 1, Max): 0.02396 nM·h
AUCinf (plasma, Period 1, Max): 0.43166 nM·h
AUClast (plasma, Period 1, Max): 0.39184 nM·h
Az (plasma, Period 1, Max): 0.084 h⁻¹
Clast (plasma, Period 1, Max): 0.00462 nM
Cmax (plasma, Period 1, Max): 0.0668 nM
T ½ (plasma, Period 1, Max): 10.32 h
Tmax (plasma, Period 1, Max): 1.00 h
AUC % Extrap (plasma, Period 1, Mean): 13.16%
AUCTmax (plasma, Period 1, Mean): 0.01354 nM·h
AUCinf (plasma, Period 1, Mean): 0.35555 nM·h
AUClast (plasma, Period 1, Mean): 0.30901 nM·h
Az (plasma, Period 1, Mean): 0.074 h⁻¹
Clast (plasma, Period 1, Mean): 0.0034 nM
Cmax (plasma, Period 1, Mean): 0.0477 nM
T ½ (plasma, Period 1, Mean): 9.45 h
Tmax (plasma, Period 1, Mean): 0.50 h
AUC % Extrap (plasma, Period 1, Min): 9.23%
AUCTmax (plasma, Period 1, Min): 0.00422 nM·h
AUCinf (plasma, Period 1, Min): 0.27962 nM·h
AUClast (plasma, Period 1, Min): 0.24083 nM·h
Az (plasma, Period 1, Min): 0.067 h⁻¹
Clast (plasma, Period 1, Min): 0.00267 nM
Cmax (plasma, Period 1, Min): 0.0337 nM
T ½ (plasma, Period 1, Min): 8.26 h
Tmax (plasma, Period 1, Min): 0.25 h
AUC % Extrap (plasma, Period 2, Max): 19.51%
AUCTmax (plasma, Period 2, Max): 0.04903 nM·h
AUCinf (plasma, Period 2, Max): 0.4907 nM·h
AUClast (plasma, Period 2, Max): 0.46442 nM·h
Az (plasma, Period 2, Max): 0.118 h⁻¹
Clast (plasma, Period 2, Max): 0.00459 nM
Cmax (plasma, Period 2, Max): 0.076 nM
T ½ (plasma, Period 2, Max): 12.80 h
Tmax (plasma, Period 2, Max): 2.00 h
AUC % Extrap (plasma, Period 2, Mean): 13.94%
AUCTmax (plasma, Period 2, Mean): 0.01698 nM·h
AUCinf (plasma, Period 2, Mean): 0.3847 nM·h
AUClast (plasma, Period 2, Mean): 0.33218 nM·h
Az (plasma, Period 2, Mean): 0.073 h⁻¹
Clast (plasma, Period 2, Mean): 0.00356 nM
Cmax (plasma, Period 2, Mean): 0.0574 nM
T ½ (plasma, Period 2, Mean): 10.06 h
Tmax (plasma, Period 2, Mean): 0.59 h
AUC % Extrap (plasma, Period 2, Min): 5.36%
AUCTmax (plasma, Period 2, Min): 0.00615 nM·h
AUCinf (plasma, Period 2, Min): 0.32388 nM·h
AUClast (plasma, Period 2, Min): 0.27076 nM·h
Az (plasma, Period 2, Min): 0.054 h⁻¹
Clast (plasma, Period 2, Min): 0.00292 nM
Cmax (plasma, Period 2, Min): 0.0392 nM
T ½ (plasma, Period 2, Min): 5.88 h
Tmax (plasma, Period 2, Min): 0.25 h
AUC % Extrap (plasma, Route iv, Max): 19.51%
AUCTmax (plasma, Route iv, Max): 0.02396 nM·h
AUCinf (plasma, Route iv, Max): 0.43166 nM·h
AUClast (plasma, Route iv, Max): 0.39184 nM·h
Az (plasma, Route iv, Max): 0.084 h⁻¹
Clast (plasma, Route iv, Max): 0.00462 nM
Cmax (plasma, Route iv, Max): 0.0722 nM
T ½ (plasma, Route iv, Max): 12.80 h
Tmax (plasma, Route iv, Max): 0.50 h
AUC % Extrap (plasma, Route iv, Mean): 14.04%
AUCTmax (plasma, Route iv, Mean): 0.00876 nM·h
AUCinf (plasma, Route iv, Mean): 0.36141 nM·h
AUClast (plasma, Route iv, Mean): 0.31056 nM·h
Az (plasma, Route iv, Mean): 0.070 h⁻¹
Clast (plasma, Route iv, Mean): 0.00343 nM
Cmax (plasma, Route iv, Mean): 0.0544 nM
T ½ (plasma, Route iv, Mean): 10.11 h
Tmax (plasma, Route iv, Mean): 0.28 h
AUC % Extrap (plasma, Route iv, Min): 9.23%
AUCTmax (plasma, Route iv, Min): 0.00422 nM·h
AUCinf (plasma, Route iv, Min): 0.27962 nM·h
AUClast (plasma, Route iv, Min): 0.24083 nM·h
Az (plasma, Route iv, Min): 0.054 h⁻¹
Clast (plasma, Route iv, Min): 0.00267 nM
Cmax (plasma, Route iv, Min): 0.0337 nM
T ½ (plasma, Route iv, Min): 8.26 h
Tmax (plasma, Route iv, Min): 0.25 h
AUC % Extrap (plasma, Route po, Max): 16.54%
AUCTmax (plasma, Route po, Max): 0.04903 nM·h
AUCinf (plasma, Route po, Max): 0.4907 nM·h
AUClast (plasma, Route po, Max): 0.46442 nM·h
Az (plasma, Route po, Max): 0.118 h⁻¹
Clast (plasma, Route po, Max): 0.00459 nM
Cmax (plasma, Route po, Max): 0.076 nM
T ½ (plasma, Route po, Max): 11.29 h
Tmax (plasma, Route po, Max): 2.00 h
AUC % Extrap (plasma, Route po, Mean): 13.07%
AUCTmax (plasma, Route po, Mean): 0.02176 nM·h
AUCinf (plasma, Route po, Mean): 0.37884 nM·h
AUClast (plasma, Route po, Mean): 0.33063 nM·h
Az (plasma, Route po, Mean): 0.076 h⁻¹
Clast (plasma, Route po, Mean): 0.00353 nM
Cmax (plasma, Route po, Mean): 0.0507 nM
T ½ (plasma, Route po, Mean): 9.40 h
Tmax (plasma, Route po, Mean): 0.81 h
AUC % Extrap (plasma, Route po, Min): 5.36%
AUCTmax (plasma, Route po, Min): 0.01199 nM·h
AUCinf (plasma, Route po, Min): 0.31704 nM·h
AUClast (plasma, Route po, Min): 0.26699 nM·h
Az (plasma, Route po, Min): 0.061 h⁻¹
Clast (plasma, Route po, Min): 0.00286 nM
Cmax (plasma, Route po, Min): 0.0357 nM
T ½ (plasma, Route po, Min): 5.88 h
Tmax (plasma, Route po, Min): 0.50 h
Tfirst [1]: 0.25 h
Tlast [1]: 24 h
AUCTmax [2]: 0.00422 nM·h and 0.00683 nM·h and 0.00902 nM·h and 0.00647 nM·h and 0.02396 nM·h and 0.00615 nM·h and 0.00528 nM·h and 0.00813 nM·h
AUCinf [2]: 0.27962 nM·h and 0.32862 nM·h and 0.36703 nM·h and 0.32974 nM·h and 0.43166 nM·h and 0.35514 nM·h and 0.39463 nM·h and 0.40482 nM·h
AUClast [2]: 0.24083 nM·h and 0.29153 nM·h and 0.32782 nM·h and 0.29111 nM·h and 0.39184 nM·h and 0.28587 nM·h and 0.32585 nM·h and 0.32966 nM·h
Clast [2]: 0.00267 nM and 0.00304 nM and 0.00292 nM and 0.00299 nM and 0.00334 nM and 0.00375 nM and 0.00462 nM and 0.0041 nM
Cmax [2]: 0.0337 nM and 0.0546 nM and 0.0722 nM and 0.0517 nM and 0.0668 nM and 0.0492 nM and 0.0422 nM and 0.065 nM
T1/2 [2]: 10.07 h and 8.46 h and 9.31 h and 8.96 h and 8.26 h and 12.80 h and 10.32 h and 12.71 h
Tmax [2]: 0.25 h and 0.5 h
λz [2]: 0.069 h⁻¹ and 0.082 h⁻¹ and 0.075 h⁻¹ and 0.077 h⁻¹ and 0.084 h⁻¹ and 0.054 h⁻¹ and 0.067 h⁻¹ and 0.055 h⁻¹
Tlast (plasma, route po, individual subjects 1-8, period 1 or 2): 24 h
AUCTmax [3]: 0.0122 nM·h and 0.03149 nM·h and 0.01712 nM·h and 0.04903 nM·h and 0.02379 nM·h and 0.01199 nM·h and 0.01353 nM·h and 0.01489 nM·h
AUCinf [3]: 0.32094 nM·h and 0.4907 nM·h and 0.31704 nM·h and 0.41499 nM·h and 0.40394 nM·h and 0.32388 nM·h and 0.3913 nM·h and 0.36795 nM·h
AUClast [3]: 0.28221 nM·h and 0.46442 nM·h and 0.26699 nM·h and 0.34636 nM·h and 0.34963 nM·h and 0.27076 nM·h and 0.34145 nM·h and 0.32318 nM·h
Clast [3]: 0.00286 nM and 0.0031 nM and 0.00341 nM and 0.00459 nM and 0.00395 nM and 0.00326 nM and 0.00376 nM and 0.0033 nM
Cmax [3]: 0.0406 nM and 0.076 nM and 0.0357 nM and 0.0392 nM and 0.0494 nM and 0.0479 nM and 0.0581 nM and 0.0584 nM
T1/2 [3]: 9.39 h and 5.88 h and 10.18 h and 10.36 h and 9.53 h and 11.29 h and 9.19 h and 9.40 h
Tfirst [3]: 0.25 hr (7×) and 0.5 hr
Tmax [3]: 0.5 h and 0.75 h and 1 h and 2 h
λz [3]: 0.074 hr^−1 (2×) and 0.118 hr^−1 and 0.068 hr^−1 and 0.067 hr^−1 and 0.073 hr^−1 and 0.061 hr^−1 and 0.075 hr^−1
